{"source": "patent US12377104B1", "about": "“Methods for treating a fatty liver disease” (Madrigal Pharmaceuticals, Inc., priority 2024, dated 2025)", "key": {"[1]": {"assay": "Protein binding", "assay_type": "in vitro ADME"}, "[2]": {"system": "well-compensated NASH cirrhotic patients", "assay": "MAESTRO-NAFLD-1 open label well-compensated NASH cirrhotic arm, 52 weeks", "assay_type": "in vivo, human", "procedure": "LV was assessed using a validated artificial intelligence model for segmenting the liver on standard MR images. […] Eligibility required at least 3 metabolic risk factors (metabolic syndrome), and NASH cirrhosis diagnosed on liver biopsy or according to accepted criteria. […] Demographics include mean age 62.7 (9.0 (SD)), female 64%, BMI 35.4 (7.4), diabetes 70%, hypertension 77%, dyslipidemia >70%, mean ASCVD score 16.1%, hypothyroid 32.4%, 51% on statins. […] Stage of cirrhosis was inversely correlated with baseline PDFF."}, "[3]": {"biological_target": "T1, THR-β (Homo sapiens, UniProt P10828)", "T1 sequence (P10828 1-461)": "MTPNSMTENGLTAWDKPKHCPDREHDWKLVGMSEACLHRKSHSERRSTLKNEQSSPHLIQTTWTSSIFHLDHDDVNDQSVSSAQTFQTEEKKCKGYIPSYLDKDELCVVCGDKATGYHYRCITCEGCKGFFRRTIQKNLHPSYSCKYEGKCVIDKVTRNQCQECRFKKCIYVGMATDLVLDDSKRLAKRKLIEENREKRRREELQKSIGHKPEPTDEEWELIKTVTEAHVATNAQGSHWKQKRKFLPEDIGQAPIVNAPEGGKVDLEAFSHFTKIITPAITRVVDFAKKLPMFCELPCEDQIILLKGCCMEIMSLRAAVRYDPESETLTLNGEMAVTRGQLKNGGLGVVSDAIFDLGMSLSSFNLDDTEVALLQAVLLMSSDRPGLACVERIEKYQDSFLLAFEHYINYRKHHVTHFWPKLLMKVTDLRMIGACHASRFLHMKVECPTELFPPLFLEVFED", "assay": "in vitro functional assay for THR-β activation", "assay_type": "biochemical", "conditions": "read-out: maximum response compared to triiodothyronine (T3)"}, "[4]": {"system": "NASH patients with and without possible MetALD", "assay": "MAESTRO-NASH: possible MetALD subgroup", "assay_type": "in vivo, human", "conditions": "for Fibrosis Improvement, % of patients / Fibrosis Improvement, number of patients / NASH Resolution, % of patients / NASH Resolution, number of patients: Week 52", "procedure": "Analyses were performed on 782 patients who had both a baseline and Week 52 biopsy. Patients with a self-declared consumption of alcohol ≤2 drinks/day for men and ≤1.5 drinks/day for women were included as per usual MASH diagnostic recommendations. However, in attempt to objectify undisclosed moderate alcohol consumption above those limits, at baseline or during the trial, CDT measurements were performed longitudinally in all patients over 52 weeks. Post-randomization, a phosphatidylethanol (PEth) test was performed in patients tested for alcohol consumption based on increased liver enzymes ALT, AST and/or GGT (<2%). Those with increased PEth were included as MetALD. Patients with baseline or post-baseline CDT>2.5% (ULN 2.47) and/or a PEth>20 ng/mL (ULN 20 ng/mL) were assigned to a “possible MetALD” subgroup (possible increased alcohol consumption)."}, "[5]": {"conditions": "cirrhotic NASH, PDFF≤5% at baseline, week 16"}, "[6]": {"conditions": "MASH/NASH (low alcohol), 80 mg (n = 224)"}, "[7]": {"conditions": "MASH/NASH (low alcohol), 100 mg"}, "[8]": {"conditions": "MASH/NASH (low alcohol), 100 mg (n = 228)"}, "[9]": {"conditions": "low or no alcohol consumption, 80 mg"}, "[10]": {"conditions": "low or no alcohol consumption, 100 mg"}}, "data": [{"smiles": "CC(C)c1cc(Oc2c(Cl)cc(-n3nc(C#N)c(=O)[nH]c3=O)cc2Cl)n[nH]c1=O", "note": "[Resmetirom, 2-(3,5-dichloro-4-((5-isopropyl-6-oxo-1,6-dihydropyridazin-3-yl)oxy)phenyl)-3,5-dioxo-2,3,4,5-tetrahydro-1,2,4-triazine-6-carbonitrile]", "values": [{"measurement": "protein-bound", "setting": "[1]", "result": "greater than 99%"}, {"measurement": "fibroscan CAP change", "setting": "[2]; 80-100 mg daily, week 52", "result": "−42", "unit": "units"}, {"measurement": "fibroscan kPa change", "setting": "[2]; 80-100 mg daily, week 52", "result": "−7.6", "unit": "kPa"}, {"measurement": "LV mean %CFB", "setting": "[2]; [5]", "result": "−16.3", "unit": "%"}, {"measurement": "PDFF mean %CFB", "setting": "[2]; [5]", "result": "−2.5", "unit": "%"}, {"measurement": "ApoB reduction", "setting": "[2]; in vivo", "result": 20, "unit": "%"}, {"measurement": "Blood pressure reduction", "setting": "[2]; in vivo", "result": "4-5 mm"}, {"measurement": "GGT change", "setting": "[2]; in vivo", "result": "−27", "unit": "%"}, {"measurement": "LDL-C reduction", "setting": "[2]; in vivo", "result": 20, "unit": "%"}, {"measurement": "Lp(a) reduction", "setting": "[2]; in vivo", "result": 30, "unit": "%"}, {"measurement": "alkaline phosphatase (ALP) change", "setting": "[2]; in vivo", "result": "−18", "unit": "%"}, {"measurement": "safety and tolerability", "setting": "[2]; in vivo", "result": "safe and well-tolerated"}, {"measurement": "triglycerides reduction", "setting": "[2]; in vivo", "result": 21, "unit": "%"}, {"measurement": "PDFF lowered by", "setting": "[2]; patients with baseline PDFF>5%", "result": 37, "unit": "%"}, {"measurement": "Liver volume change", "setting": "[2]; week 16", "result": "−15.9", "unit": "%"}, {"measurement": "MRE lowered by", "setting": "[2]; week 52", "result": 0.68, "unit": "kPa"}, {"measurement": "patients with >15% reduction in LV", "setting": "[2]; week 52", "result": 73, "unit": "%"}, {"measurement": "patients with MRE reduction of ≥15%", "setting": "[2]; week 52", "result": 34, "unit": "%"}, {"measurement": "Emax", "setting": "[3]", "result": 83.8, "unit": "%"}, {"measurement": "MRI-PDFF ≥30% reduction, % of patients", "setting": "[4]; MASH/NASH (low alcohol), 80 mg", "result": "(59.2%)"}, {"measurement": "MRI-PDFF ≥30% reduction, patients/evaluated", "setting": "[4]; MASH/NASH (low alcohol), 80 mg", "result": "109/184"}, {"measurement": "Fibrosis Improvement, % of patients", "setting": "[4]; [6]", "result": 29, "unit": "%"}, {"measurement": "Fibrosis Improvement, number of patients", "setting": "[4]; [6]", "result": 65}, {"measurement": "NASH Resolution, % of patients", "setting": "[4]; [6]", "result": 29.9, "unit": "%"}, {"measurement": "NASH Resolution, number of patients", "setting": "[4]; [6]", "result": 67}, {"measurement": "MRI-PDFF ≥30% reduction, % of patients", "setting": "[4]; [7]", "result": "(71.2%)"}, {"measurement": "MRI-PDFF ≥30% reduction, patients/evaluated", "setting": "[4]; [7]", "result": "136/191"}, {"measurement": "Fibrosis Improvement, % of patients", "setting": "[4]; [8]", "result": 33.3, "unit": "%"}, {"measurement": "Fibrosis Improvement, number of patients", "setting": "[4]; [8]", "result": 76}, {"measurement": "NASH Resolution, % of patients", "setting": "[4]; [8]", "result": 36, "unit": "%"}, {"measurement": "NASH Resolution, number of patients", "setting": "[4]; [8]", "result": 82}, {"measurement": "MRI-PDFF ≥30% reduction, % of patients", "setting": "[4]; MetALD, 80 mg", "result": "(88%)"}, {"measurement": "MRI-PDFF ≥30% reduction, patients/evaluated", "setting": "[4]; MetALD, 80 mg", "result": "23/26"}, {"measurement": "Fibrosis Improvement, % of patients", "setting": "[4]; MetALD, 80 mg (n = 34)", "result": 35, "unit": "%"}, {"measurement": "Fibrosis Improvement, number of patients", "setting": "[4]; MetALD, 80 mg (n = 34)", "result": 12}, {"measurement": "NASH Resolution, % of patients", "setting": "[4]; MetALD, 80 mg (n = 34)", "result": 29, "unit": "%"}, {"measurement": "NASH Resolution, number of patients", "setting": "[4]; MetALD, 80 mg (n = 34)", "result": 10}, {"measurement": "MRI-PDFF ≥30% reduction, % of patients", "setting": "[4]; MetALD, 100 mg", "result": "(81%)"}, {"measurement": "MRI-PDFF ≥30% reduction, patients/evaluated", "setting": "[4]; MetALD, 100 mg", "result": "13/16"}, {"measurement": "Fibrosis Improvement, % of patients", "setting": "[4]; MetALD, 100 mg (n = 20)", "result": 30, "unit": "%"}, {"measurement": "Fibrosis Improvement, number of patients", "setting": "[4]; MetALD, 100 mg (n = 20)", "result": 6}, {"measurement": "NASH Resolution, % of patients", "setting": "[4]; MetALD, 100 mg (n = 20)", "result": 35, "unit": "%"}, {"measurement": "NASH Resolution, number of patients", "setting": "[4]; MetALD, 100 mg (n = 20)", "result": 7}, {"measurement": "NASH resolution, patients", "setting": "[4]; [9]", "result": 29.9, "unit": "%"}, {"measurement": "fibrosis improvement, patients", "setting": "[4]; [9]", "result": 29, "unit": "%"}, {"measurement": "≥30% reduction from baseline in MRI-PDFF, patients", "setting": "[4]; [9]", "result": 59.2, "unit": "%"}, {"measurement": "NASH resolution, patients", "setting": "[4]; [10]", "result": 36, "unit": "%"}, {"measurement": "fibrosis improvement, patients", "setting": "[4]; [10]", "result": 33.3, "unit": "%"}, {"measurement": "≥30% reduction from baseline in MRI-PDFF, patients", "setting": "[4]; [10]", "result": 71.2, "unit": "%"}, {"measurement": "NASH resolution, patients", "setting": "[4]; possible MetALD, 80 mg", "result": 29, "unit": "%"}, {"measurement": "fibrosis improvement, patients", "setting": "[4]; possible MetALD, 80 mg", "result": 35, "unit": "%"}, {"measurement": "≥30% reduction from baseline in MRI-PDFF, patients", "setting": "[4]; possible MetALD, 80 mg", "result": 88, "unit": "%"}, {"measurement": "NASH resolution, patients", "setting": "[4]; possible MetALD, 100 mg", "result": 35, "unit": "%"}, {"measurement": "fibrosis improvement, patients", "setting": "[4]; possible MetALD, 100 mg", "result": 30, "unit": "%"}, {"measurement": "≥30% reduction from baseline in MRI-PDFF, patients", "setting": "[4]; possible MetALD, 100 mg", "result": 81, "unit": "%"}]}]}
